Test results reported in PubChem BioAssay AID330 (DTP/NCI, 2004).
Several values for one entry are separate records, joined by “and”; a condition that tells them apart may be missing. Identical values can stand only once. Inconclusive results and toxic doses are left out.

System: P388 leukemia ip, CD2F1 mice, survival T/C
Assay: NCI In Vivo Anticancer Drug Screen. Data for tumor model P388 Leukemia (intraperitoneal) in CD2F1 (CDF1) mice
Conditions: endpoint: median survival time, higher = longer survival
Procedure, shortened: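 Mice carrying the transplanted tumor received test compound or vehicle. Survival was recorded in each group, and the value is the treated-group measurement divided by that of the vehicle-treated control group.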

[1] = dose: 100.0 mg/kg/injection, schedule: Q01DX001 (ip), vehicle: saline with Tween-80
[2] = dose: 200.0 mg/kg/injection, schedule: Q01DX001 (ip), vehicle: saline with Tween-80
[3] = dose: 400.0 mg/kg/injection, schedule: Q04DX003 (ip), vehicle: saline with Tween-80
[4] = dose: 60.0 mg/kg/injection, schedule: Q01DX005 (ip), vehicle: saline with Tween-80
[5] = dose: 120.0 mg/kg/injection, schedule: Q01DX005 (ip), vehicle: saline with Tween-80
[6] = dose: 240.0 mg/kg/injection, schedule: Q01DX005 (ip), vehicle: saline with Tween-80

CC1(C)CC(C)(OC(=O)c2ccc(F)cc2)[N+]([O-])=N1 (centres undefined)
T/C (dose: 4.7 mg/kg/injection, schedule: Q01DX009 (ip), vehicle: other): 115 % of control | T/C (dose: 9.4 mg/kg/injection, schedule: Q01DX009 (ip), vehicle: other): 112 % of control | T/C (dose: 18.8 mg/kg/injection, schedule: Q01DX009 (ip), vehicle: other): 106 % of control | T/C (dose: 37.5 mg/kg/injection, schedule: Q01DX009 (ip), vehicle: other): 120 % of control | T/C (dose: 75.0 mg/kg/injection, schedule: Q01DX009 (ip), vehicle: other): 106 % of control | T/C (dose: 150.0 mg/kg/injection, schedule: Q01DX009 (ip), vehicle: other): 101 % of control

O=C1CSC(c2ccc(Cl)cc2)N1c1ccc(N2C(=O)CSC2c2ccc(Cl)cc2)cc1 (centres undefined)
T/C [1]: 94 % of control | T/C [2]: 91 % of control | T/C (dose: 400.0 mg/kg/injection, schedule: Q01DX001 (ip), vehicle: saline with Tween-80): 91 % of control

COc1cc2c(c(OC)c1OC)-c1ccc(SCc3ccccc3)c(=O)cc1[C@@H](NC(C)=O)CC2
T/C (dose: 1.56 mg/kg/injection, schedule: Q01DX009 (ip), vehicle: Klucel (hydroxypropylcellulose) (HPC)): 105 % of control and 111 % of control and 122 % of control | T/C (dose: 1.56 mg/kg/injection, schedule: Q01DX009 (ip), vehicle: saline with Tween-80): 96 % of control | T/C (dose: 3.12 mg/kg/injection, schedule: Q01DX009 (ip), vehicle: Klucel (hydroxypropylcellulose) (HPC)): 105 % of control and 123 % of control | T/C (dose: 3.12 mg/kg/injection, schedule: Q01DX009 (ip), vehicle: saline with Tween-80): 105 % of control | T/C (dose: 6.25 mg/kg/injection, schedule: Q01DX009 (ip), vehicle: saline with Tween-80): 105 % of control | T/C (dose: 12.5 mg/kg/injection, schedule: Q01DX009 (ip), vehicle: Klucel (hydroxypropylcellulose) (HPC)): 169 % of control and 214 % of control | T/C (dose: 25.0 mg/kg/injection, schedule: Q01DX009 (ip), vehicle: Klucel (hydroxypropylcellulose) (HPC)): 92 % of control

S=c1cc(-c2ccccc2)ss1
T/C (dose: 178.0 mg/kg/injection, schedule: Q04DX003 (ip), vehicle: saline with Tween-80): 102 % of control | T/C (dose: 266.0 mg/kg/injection, schedule: Q04DX003 (ip), vehicle: saline with Tween-80): 102 % of control | T/C [3]: 101 % of control | T/C (dose: 600.0 mg/kg/injection, schedule: Q04DX003 (ip), vehicle: saline with Tween-80): 102 % of control

CC(C)(C)OC(=O)NC(CCC(=O)OCc1ccccc1)C(=O)ON1C(=O)CCC1=O (centres undefined)
T/C (dose: 50.0 mg/kg/injection, schedule: Q01DX005 (ip), vehicle: saline with Tween-80): 104 % of control | T/C (dose: 100.0 mg/kg/injection, schedule: Q01DX005 (ip), vehicle: saline with Tween-80): 114 % of control | T/C (dose: 200.0 mg/kg/injection, schedule: Q01DX005 (ip), vehicle: saline with Tween-80): 102 % of control

COc1cc(C(Nc2ncccn2)c2cc3c(cc2O)OCO3)cc(OC)c1OC (centres undefined)
T/C [4]: 100 % of control | T/C [5]: 92 % of control | T/C [6]: 90 % of control

CCCCCCCC/C=C/CCCCCCCC(=O)N(CCOC(=O)C(C)(C)C)CCOC(=O)C(C)(C)C
T/C (dose: 50.0 mg/kg/injection, schedule: Q01DX009 (ip), vehicle: Klucel (hydroxypropylcellulose) (HPC)): 104 % of control | T/C (dose: 100.0 mg/kg/injection, schedule: Q01DX009 (ip), vehicle: Klucel (hydroxypropylcellulose) (HPC)): 112 % of control | T/C (dose: 200.0 mg/kg/injection, schedule: Q01DX009 (ip), vehicle: Klucel (hydroxypropylcellulose) (HPC)): 111 % of control

c1ccc(C23OOC(c4ccccc4)(c4ccccc42)c2ccccc23)cc1
T/C (dose: 5.0 mg/kg/injection, schedule: Q01DX001 (ip), vehicle: Klucel (hydroxypropylcellulose) (HPC)): 96 % of control | T/C (dose: 10.0 mg/kg/injection, schedule: Q01DX001 (ip), vehicle: Klucel (hydroxypropylcellulose) (HPC)): 96 % of control | T/C (dose: 20.0 mg/kg/injection, schedule: Q01DX001 (ip), vehicle: Klucel (hydroxypropylcellulose) (HPC)): 89 % of control

COC(=O)c1nnn(-c2cccc(C(F)(F)F)c2)c1N
T/C [4]: 89 % of control | T/C [5]: 90 % of control | T/C [6]: 100 % of control

CC1(C)CCO/C(=C\C(=O)N2Cc3cc4ccccc4nc3C2)N1
T/C (dose: 18.75 mg/kg/injection, schedule: Q01DX001 (ip), vehicle: saline sonified): 95 % of control | T/C (dose: 37.5 mg/kg/injection, schedule: Q01DX001 (ip), vehicle: saline sonified): 95 % of control | T/C (dose: 75.0 mg/kg/injection, schedule: Q01DX001 (ip), vehicle: saline sonified): 100 % of control

CCS/C(C#N)=C(/OC)c1ccccc1Cl
T/C (dose: 50.0 mg/kg/injection, schedule: Q01DX009 (ip), vehicle: saline with Tween-80): 89 % of control | T/C (dose: 100.0 mg/kg/injection, schedule: Q01DX009 (ip), vehicle: saline with Tween-80): 94 % of control

CCOC(=O)CCN(Cc1ccccc1)CC(C)C(=O)OC (centres undefined)
T/C (dose: 100.0 mg/kg/injection, schedule: Q04DX003 (ip), vehicle: saline with Tween-80): 100 % of control | T/C (dose: 200.0 mg/kg/injection, schedule: Q04DX003 (ip), vehicle: saline with Tween-80): 100 % of control | T/C [3]: 100 % of control

COCCOCCOCCOCCOCCN
T/C (dose: 100.0 mg/kg/injection, schedule: Q04DX003 (ip), vehicle: saline): 100 % of control | T/C (dose: 200.0 mg/kg/injection, schedule: Q04DX003 (ip), vehicle: saline): 100 % of control | T/C (dose: 400.0 mg/kg/injection, schedule: Q04DX003 (ip), vehicle: saline): 104 % of control

O=c1[nH]c(=O)c2cc(Cl)cc(Cl)c2[nH]1
T/C (dose: 50.0 mg/kg/injection, schedule: Q01DX001 (ip), vehicle: saline with Tween-80): 90 % of control | T/C [1]: 90 % of control | T/C [2]: 90 % of control

CC(=O)Nc1cc2cc(NC=C(C#N)C#N)ccc2oc1=O
T/C (dose: 60.0 mg/kg/injection, schedule: Q01DX005 (ip), vehicle: Klucel + Tween-80): 96 % of control | T/C (dose: 120.0 mg/kg/injection, schedule: Q01DX005 (ip), vehicle: Klucel + Tween-80): 92 % of control

Cc1nc(=S)c2ncn(-c3ccccc3)c2[nH]1
T/C (dose: 60.0 mg/kg/injection, schedule: Q01DX005 (ip), vehicle: Klucel (hydroxypropylcellulose) (HPC)): 95 % of control | T/C (dose: 120.0 mg/kg/injection, schedule: Q01DX005 (ip), vehicle: Klucel (hydroxypropylcellulose) (HPC)): 94 % of control

N#Cc1cccc(CN2CCCNCC2)c1
T/C (dose: 6.25 mg/kg/injection, schedule: Q01DX009 (ip), vehicle: water): 94 % of control | T/C (dose: 12.5 mg/kg/injection, schedule: Q01DX009 (ip), vehicle: water): 94 % of control | T/C (dose: 25.0 mg/kg/injection, schedule: Q01DX009 (ip), vehicle: water): 103 % of control | T/C (dose: 50.0 mg/kg/injection, schedule: Q01DX009 (ip), vehicle: water): 109 % of control | T/C (dose: 100.0 mg/kg/injection, schedule: Q01DX009 (ip), vehicle: water): 105 % of control

Cn1cnc([N+](=O)[O-])c1Sc1ccncc1S(N)(=O)=O
T/C (dose: 50.0 mg/kg/injection, schedule: Q01DX005 (ip), vehicle: Klucel (hydroxypropylcellulose) (HPC)): 118 % of control | T/C (dose: 100.0 mg/kg/injection, schedule: Q01DX005 (ip), vehicle: Klucel (hydroxypropylcellulose) (HPC)): 102 % of control | T/C (dose: 200.0 mg/kg/injection, schedule: Q01DX005 (ip), vehicle: Klucel (hydroxypropylcellulose) (HPC)): 108 % of control

COc1ccc(/C=N\NC(=O)C(=O)N/N=C\c2ccc(OC)cc2)cc1
T/C (dose: 12.5 mg/kg/injection, schedule: Q01DX009 (ip), vehicle: distilled water + alcohol): 103 % of control | T/C (dose: 25.0 mg/kg/injection, schedule: Q01DX009 (ip), vehicle: distilled water + alcohol): 100 % of control | T/C (dose: 50.0 mg/kg/injection, schedule: Q01DX009 (ip), vehicle: distilled water + alcohol): 94 % of control | T/C (dose: 100.0 mg/kg/injection, schedule: Q01DX009 (ip), vehicle: distilled water + alcohol): 89 % of control | T/C (dose: 200.0 mg/kg/injection, schedule: Q01DX009 (ip), vehicle: distilled water + alcohol): 108 % of control

c1cc[c]([Sn]([O][Sn]([c]2ccccc2)([c]2ccccc2)[c]2ccccc2)([c]2ccccc2)[c]2ccccc2)cc1
T/C (dose: 0.38 mg/kg/injection, schedule: Q04DX003 (ip), vehicle: saline): 110 % of control | T/C (dose: 0.75 mg/kg/injection, schedule: Q04DX003 (ip), vehicle: saline): 113 % of control | T/C (dose: 1.5 mg/kg/injection, schedule: Q04DX003 (ip), vehicle: saline): 98 % of control | T/C (dose: 3.13 mg/kg/injection, schedule: Q04DX003 (ip), vehicle: Klucel (hydroxypropylcellulose) (HPC)): 90 % of control | T/C (dose: 6.25 mg/kg/injection, schedule: Q04DX003 (ip), vehicle: saline with Tween-80): 105 % of control

CCOC(=O)C1=C(C(C)=O)C(c2ccccc2[N+](=O)[O-])C(C(C)=O)=C(C(=O)OCC)N1
T/C (dose: 60.0 mg/kg/injection, schedule: Q01DX005 (ip), vehicle: saline): 104 % of control | T/C (dose: 120.0 mg/kg/injection, schedule: Q01DX005 (ip), vehicle: saline): 105 % of control | T/C (dose: 240.0 mg/kg/injection, schedule: Q01DX005 (ip), vehicle: saline): 96 % of control
